Patent publication US20200179335A1, “TREATMENT OF DISEASES ASSOCIATED WITH A DYSREGULATION OF THE mTOR PATHWAY” (BIOCODEX, priority 2017, published 2020)

Columns and labels:
[1] = tested on: Akt (P13K-Akt, upstream modulator of the mTOR pathway); experiment: Western blot of Akt phosphorylation in hippocampus of pentylenetetrazol-treated rats; assay type: in vivo, rat; conditions: for ratio of phosphorylated Akt related to total Akt: hippocampus of adult male Sprague-Dawley rats, pretreatment i.p. (stiripentol 300 mg/kg or wortmannin 2.4 mg/kg) 30 min before pentylenetetrazol 80 mg/kg s.c., sacrifice 30 min after PTZ, tween-PTZ control 1.81
Experimental: (§1) The mTOR pathway has been studied at two levels (i) an upstream level of regulation with the P13K-Akt, a modulator of the mTOR pathway and (ii) a downstream level with the ribosomal protein S6, the substrate of the S6 kinase, a direct downstream effector of the mTOR pathway. Adult male Sprague-Dawley rats (Janvier, 220-250 g, n=24, 7 weeks old) were used in this study. They were housed 2 per cage (Techniplast ref. 1291), and maintained in a 12 h light/dark cycle (light ON at 7 AM). Food and water were provided ad libitum. The experiments were conducted in accordance with the European Recommendations (directive 2010/63/EU) for the use and care of laboratory animals. The experimental protocol has been approved by the ethics committee. Pentylenetetrazol (batch MKB[…], SIGMA), 80 mg/kg in 0.9% NaCl was administered subcutaneously in an injection volume of 5 mL/kg. Wortmannin (Sigma), 2.4 mg/kg in DMSO 10% v/v in 0.9% NaCl or Stiripentol (Biocodex), 300 mg/kg in tween80 5% v/v, were injected intraperitoneally (10 mL/kg) 30 min before pentylenetetrazol administration. […] The protein concentration of each sample was determined by a BCA protein assay. […] Signals were detected by enzyme chemiluminescence (Vilber Lourmat Fusion FX5 system) and quantitatively analyzed with the Bio-1 D software (Vilber Lourmat, France). […] Each membrane was also stripped (RestoreTM western blot stripping buffer, Thermoscientific) and reprobed to detect beta-actin protein levels, a control for the total quantity of protein deposited. […] The difference between groups was assessed by a two-way ANOVA followed by a Holm-Sidak multiple comparison (factor pretreatment=tween or STP, factor treatment=NaCl or PTZ). The effect of wortmaninn was assessed by a t-test comparison between tween-pentylenetetrazol (n=5) versus wortmannin-pentylenetetrazol groups (n=3).

[2] = tested on: ribosomal protein S6 (downstream effector of the mTOR pathway); experiment: Western blot of S6 protein phosphorylation in hippocampus of pentylenetetrazol-treated rats; assay type: in vivo, rat; conditions: for ratio of phosphorylated S6 related to total S6 protein: hippocampus of adult male Sprague-Dawley rats, pretreatment i.p. (stiripentol 300 mg/kg or wortmannin 2.4 mg/kg) 30 min before pentylenetetrazol 80 mg/kg s.c., sacrifice 30 min after PTZ, Veh-PTZ control 0.79
Experimental: as §1

[3] = hippocampus, rats pretreated i.p. 30 min before pentylenetetrazol 80 mg/kg s.c.

CC(C)(C)C(O)/C=C/c1ccc2c(c1)OCO2 (racemic) [stiripentol, 1-penten-3-ol, 1-(1,3-benzodioxol)-4,4-dimethyl]
ratio of phosphorylated Akt related to total Akt [1]: 2.46 | band of phosphorylated Akt in western blot (FIG. 1) [1, 3]: strong band | ratio of phosphorylated S6 related to total S6 protein [2]: 0.36 | band of phosphorylated S6 protein in western blot (FIG. 3) [2, 3]: No band was visible

COC[C@H]1OC(=O)c2coc3c2[C@@]1(C)C1=C(C3=O)[C@@H]2CCC(=O)[C@@]2(C)C[C@H]1OC(C)=O [wortmannin]
ratio of phosphorylated Akt related to total Akt [1]: 0.40 | ratio of phosphorylated S6 related to total S6 protein [2]: 0.30
